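Dose response: 5 concentrations. Exposure: 48 h. Format: 96-well plates. Endpoint: linear interpolation; highest concentration if not reached. Abbreviation: GI50, concentration required for 50% inhibition of growth. TGI marks complete inhibition of growth.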
Assays:
Experiment in all cases: growth of human tumour cells (NCI), 48 h; in the data active = GI50 below about 0.43 µM; inactive = the rest
786-0 renal = tested on: 786-0 renal
A498 renal = tested on: A498 renal
A549 NSCLC = tested on: A549 NSCLC
ACHN renal = tested on: ACHN renal
BT-549 breast = tested on: BT-549 breast
CAKI-1 renal = tested on: CAKI-1 renal
CCRF-CEM leukemia = tested on: CCRF-CEM leukemia
COLO 205 colon = tested on: COLO 205 colon
DU-145 prostate = tested on: DU-145 prostate
EKVX NSCLC = tested on: EKVX NSCLC
HCC-2998 colon = tested on: HCC-2998 colon
HCT-116 colon = tested on: HCT-116 colon
HCT-15 colon = tested on: HCT-15 colon
HL-60(TB) leukemia = tested on: HL-60(TB) leukemia
HOP-62 NSCLC = tested on: HOP-62 NSCLC
HOP-92 NSCLC = tested on: HOP-92 NSCLC
HS 578T breast = tested on: HS 578T breast
IGROV1 ovarian = tested on: IGROV1 ovarian
KM12 colon = tested on: KM12 colon
LOX IMVI melanoma = tested on: LOX IMVI melanoma
M14 melanoma = tested on: M14 melanoma
MALME-3M melanoma = tested on: MALME-3M melanoma
MCF7 breast = tested on: MCF7 breast
MDA-MB-231 breast = tested on: MDA-MB-231 breast
MDA-MB-435 = tested on: MDA-MB-435
MDA-MB-468 breast = tested on: MDA-MB-468 breast
MOLT-4 leukemia = tested on: MOLT-4 leukemia

Cc1ccc(C2CC(c3ccc(S(=O)(=O)NCCNc4nc(Nc5ccc(F)cc5)nc(N(C)C)n4)cc3)=Nc3c(N)nc(N)nc3N2)cc1 (centres undefined)
41.1 µM: TGI (HCC-2998 colon)
20.2 µM: TGI (HL-60(TB) leukemia)
5.11 µM: TGI (LOX IMVI melanoma)
> 100 µM: TGI (786-0 renal) | TGI (A498 renal) | TGI (A549 NSCLC) | TGI (ACHN renal) | TGI (CAKI-1 renal) | TGI (CCRF-CEM leukemia) | TGI (COLO 205 colon) | TGI (DU-145 prostate) | TGI (EKVX NSCLC) | TGI (HCT-116 colon) | TGI (HCT-15 colon) | TGI (HOP-62 NSCLC) | TGI (HS 578T breast) | TGI (IGROV1 ovarian) | TGI (KM12 colon) | TGI (M14 melanoma) | TGI (MCF7 breast) | TGI (MDA-MB-231 breast) | TGI (MDA-MB-435)
8.52 µM: TGI (MDA-MB-468 breast)
21 µM: TGI (HOP-92 NSCLC)
59.4 µM: TGI (BT-549 breast)
inactive: GI50 (786-0 renal) 7.06 µM | GI50 (A498 renal) > 100 µM | GI50 (A549 NSCLC) > 100 µM | GI50 (ACHN renal) > 100 µM | GI50 (BT-549 breast) 5.46 µM | GI50 (CAKI-1 renal) 8.06 µM | GI50 (CCRF-CEM leukemia) 2.81 µM | GI50 (COLO 205 colon) 11.5 µM | GI50 (DU-145 prostate) > 100 µM | GI50 (EKVX NSCLC) 5.84 µM | GI50 (HCC-2998 colon) 2.93 µM | GI50 (HCT-116 colon) 3.81 µM | GI50 (HCT-15 colon) 4.95 µM | GI50 (HL-60(TB) leukemia) 2.94 µM | GI50 (HOP-62 NSCLC) > 100 µM | GI50 (HOP-92 NSCLC) 2.54 µM | GI50 (HS 578T breast) 19.4 µM | GI50 (IGROV1 ovarian) 64.4 µM | GI50 (KM12 colon) 4.56 µM | GI50 (LOX IMVI melanoma) 2.09 µM | GI50 (M14 melanoma) 4.56 µM | GI50 (MALME-3M melanoma) 4.65 µM | GI50 (MCF7 breast) 3.08 µM | GI50 (MDA-MB-231 breast) 3.86 µM | GI50 (MDA-MB-435) 8.79 µM | GI50 (MDA-MB-468 breast) 2.72 µM | GI50 (MOLT-4 leukemia) 2.2 µM
33.2 µM: TGI (MALME-3M melanoma)
7.53 µM: TGI (MOLT-4 leukemia)

Reference: PubChem BioAssay (NCI)
